Values of other authors as cited in patent publication US11234935B2, “Method of inducing satiety” (PERORA GMBH, priority 2015, dated 2022).

Conditions: rat feeding study; independent from intake

- true digestibility of stearic acid from tristearin: 0.15 g/g
SMILES: CCCCCCCCCCCCCCCCCC(=O)OCC(COC(=O)CCCCCCCCCCCCCCCCC)OC(=O)CCCCCCCCCCCCCCCCC [tristearin]
